Experiments:
[1] = biological target: T1, recombinant human ALKBH2 protein (Homo sapiens, UniProt Q6NS38); test: α-ketoglutarate competitor test: ALKBH2 repair with varying αKG and fixed Fe; assay type: biochemical; conditions: for change of repair efficiency with increasing αKG: Fe(II) 10 μM, rhein 50 μM, compound 7 2 μM
T1 sequence (Q6NS38 1-261): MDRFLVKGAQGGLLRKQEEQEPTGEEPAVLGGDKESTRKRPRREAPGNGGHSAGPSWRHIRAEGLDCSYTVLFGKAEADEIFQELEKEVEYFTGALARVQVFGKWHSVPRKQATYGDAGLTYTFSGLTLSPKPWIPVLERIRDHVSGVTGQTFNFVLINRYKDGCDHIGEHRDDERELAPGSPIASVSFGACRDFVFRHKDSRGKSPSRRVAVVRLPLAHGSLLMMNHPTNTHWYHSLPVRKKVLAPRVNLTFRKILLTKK

[2] = biological target: T1, recombinant human ALKBH2 protein; test: Fe; assay type: biochemical; conditions: for change of repair efficiency with increasing Fe(II) ion: rhein 50 μM

Row | Molecule | repair efficiency ([1]; 2 μM compound, αKG 50 to 800 μM, Fe(II) kept at 10 μM) | change of repair efficiency with increasing αKG ([1]; αKG 50 to 800 μM) | reactivity (repair) ([2]; 5 μM Fe(II) ion, αKG kept at 93 μM) [%] | change of repair efficiency with increasing Fe(II) ion ([2]; Fe(II) 5 to 80 μM, αKG 93 μM) | repair efficiency ([2]; Fe(II) ion concentration increased up to 80 μM, αKG 93 μM, control ~95% repair) | repair ratio ([1]; 50 μM rhein, 50 μM αKG, Fe(II) fixed at 10 μM) [%] | repair efficiency ([2]; 50 μM rhein, Fe(II) 5 to 80 μM, αKG fixed at 93 μM)
1 | tannic acid [compound 7] | ~ 25% | did not vary significantly | 5 | restored in a concentration-dependent manner | up to 60% | – | –
2 | O=C(O)c1cc(O)c2c(c1)C(=O)c1cccc(O)c1C2=O [rhein, Rhein, reference compound] | – | recovered in a concentration-dependent manner | – | no significant change | – | 30 | around 36%
3 | O=C(OC[C@H]1O[C@@H](OC(=O)c2cc(O)c(O)c(O)c2)[C@H](OC(=O)c2cc(O)c(O)c(O)c2)[C@@H](OC(=O)c2cc(O)c(O)c(O)c2)[C@@H]1OC(=O)c1cc(O)c(O)c(O)c1)c1cc(O)c(O)c(O)c1 [compound 5, pentagalloyl glucose] | – | – | – | recovered in a concentration-dependent manner | – | – | –
4 | O=C(O)c1cc(O)c(O)c(O)c1 [compound 2, gallic acid] | – | – | – | recovered in a concentration-dependent manner | – | – | –

Source: paper PMC6890495 (Chemical research in toxicology, 2019)
